Experimental data: patent US20240252677A1, “ONE-COMPONENT DELIVERY SYSTEM FOR NUCLEIC ACIDS” (The Trustees of the University of Pennsylvania, priority 2021, published 2024)

Key:
[1] = DLS size of dendrimersomes assembled from glycerol-JDs in water at different concentrations; type: physicochemical; details: for Dh (nm): size distribution by intensity
Experimental: Assembly of all eight glycerol-JDs was performed by injection of their ethanol solution (50 μL) into 1 mL of Milli-Q water. The size distribution and structure of resulting DSs were analyzed by DLS (FIG. 84) and cryo-TEM. […] In a certain concentration range the size of DSs increased with the concentration of JDs injected in water or buffer. […] The dimensions of the assemblies were identical when the concentrations of the JDs in water were identical. Sizes of assemblies from mixtures of 1R and 1S in different ratios (1:3, 1:1 and 3:1), were also identical (FIG. 84). […] With the exception of the rotation of polarized light, the physical properties of enantiomers and their racemic mixtures must be identical.
Dynamic light scattering (DLS). Hydrodynamic diameters (Dh) of the self-assemblies of dendrimer molecules and their size distributions were measured on a Malvern Instruments particle sizer (Zetasizer® Nano S, Malvern Instruments, UK) equipped with 4 mW He—Ne laser (633 nm) and avalanche photodiode positioned at […] to the beam and temperature controlled cuvette holder. Experiments were performed at 25° C. in triplicate. The distribution of radius was intensity.

[2] = Cryo-TEM of dendrimersomes from glycerol-JDs, number of vesicle layers; type: physicochemical
Source text: The red numbers in FIG. 85 stand for the unilamellar while yellow numbers for multilamellar DSs. The calculated percentages of unilamellar DSs in the selected images for 2R, 2S and 2rac are 91%, 70% and 13%, respectively. Same trend was found for cryo-TEM of 1R, 1S and 1rac (FIG. 86 through FIG. 88). […] Achiral DSs are all unilamellar.
Cryogenic Transmission Electron Microscopy (Cryo-TEM). Morphologies of the Janus Dendrimer assemblies were characterized by cryo-TEM. Images were acquired on a Carl Zeiss Libra 120 microscope. Samples were prepared by plunge freezing of aqueous dispersion on plasma-treated lacey grids. The vitrified specimens were then transferred to a Gatan-910 cryoholder. The 5 images were recorded at −170° C. with an acceleration voltage of 120 kV. The concentration of JD in the aqueous solution of DSs was 1 mg mL-^1.

[3] = Dimensions (size, PDI) of DNPs co-assembled from IAJDs and Luc-mRNA by DLS; type: physicochemical; details: CIAJD 4 mg/mL
Experimental: Dynamic Light Scattering (DLS) for the DNPs was performed in buffer with a Malvern Instruments particle sizer (Zetasizer Nano S, Malvern Instruments, UK) equipped with 4 mW He—Ne laser 633 nm and avalanche photodiode positioned at […] to the beam and temperature-controlled cuvette holder. Instrument parameters were determined automatically along with measurement times.
Formulation of DNPs Containing mRNA-Luc: IAJDs were dissolved in ethanol with various initial concentrations (5-160 mg/mL). Nucleoside-modified mRNA encoding firefly luciferase (mRNA-Luc) was dissolved in water with various initial concentrations (1-4 mg/mL). 12.5 μL of mRNA solution was placed into a clean RNAs free eppendorf (1.5 mL) and mixed with 463 μL of citrate buffer (10 mM, pH 3.0)/acetate buffer (10 mM). For encapsulation of mRNA into IAJDs, 25 μL of IAJDs of the ethanol stock solution was rapidly injected into mRNA solution in citrate or acetate buffer followed by vortex for 5 seconds.
Dynamic Light Scattering (DLS) for the sizes and polydispersities of DNPs was performed on a Malvern Instruments particle sizer (Zetasizer Nano S, Malvern Instruments, UK) equipped with 4 mW He—Ne laser 633 nm and avalanche photodiode positioned at […] to the beam and temperature-controlled cuvette holder. Instrument parameters were determined automatically along with measurement times. Sample solution (0.4 mL) was placed in a semi-micro cuvette (1.6 mL, polystyrene, 10×10×45 mm, manufactured by Greiner Bio-One) and the measurements were performed at 23° C.
Formulation of DNPs obtained by co-assembly of IAJDs and Luc-mRNA was performed as follows. IAJDs were dissolved in ethanol with an initial concentration of 80 mg/mL. Nucleoside-modified mRNA encoding firefly luciferase (Luc-mRNA) was dissolved in UltraPure DNase/RNase-free distilled water with an initial concentration of 4.0 mg/mL. 12.5 μL of Luc-mRNA solution was placed into a clean RNAs free eppendorf (1.5 mL) and 463 μL acetate buffer (10 mM, pH 4.0) was added. Then, 25 μL of IAJD in the ethanol stock solution was rapidly injected into the Luc-mRNA solution in acetate buffer followed by vortex for 5 seconds.
Dynamic Light Scattering (DLS) for the dimensions (sizes and polydispersities) of DNPs was performed on a Malvern Instruments particle sizer (Zetasizer Nano S, Malvern Instruments, UK) equipped with 4 mW He—Ne laser 633 nm and avalanche photodiode positioned at 175° to the beam and temperature-controlled cuvette holder. Instrument parameters were set up automatically along with measurement times. Sample solution (c.a. 0.4 mL) was placed in a semi-micro cuvette (1.6 mL, polystyrene, 10×10×45 mm, Greiner Bio-One) and the measurements were performed at 23° C.
Formulation of DNPs Co-assembled from IAJDs and Luc-mRNA: nucleoside-modified mRNA encoding firefly luciferase (Luc-mRNA) was dissolved in UltraPure DNase/RNase-free distilled water with an initial concentration of 4.0 mg/mL. IAJD molecules were dissolved in ethanol with an initial concentration of 80 mg/mL. 12.5 μL of Luc-mRNA solution was taken and placed into a clean RNAs free eppendorf (1.5 mL). Then 463 μL of acetate buffer (10 mM, pH 4.0) was added. Afterwards, 25 μL of IAJD in the ethanol stock solution was taken and rapidly injected into the above Luc-mRNA solution in acetate buffer followed by vortex for 5 seconds.

[4] = test system: HEK293T cells; test: In vitro Luc-mRNA transfection, luciferase luminescence expression in HEK293T cells; type: cell-based, human; parameters: unit not given here; details: CIAJD 4 mg/mL, HEK293T, 125 ng/well
Experimental: In Vitro Transfection Activity of DNPs in Human Embrionic Kidney (HEK) 293T Cells: HEK293T cells were seeded into 96-well plates (20,000 cells/well/200 μL) and cultured for 24 h at 37° C. in 5% CO2 complete cell culture media. Screening experiments were performed with nonoptimized DNPs containing naked nucleoside-modified mRNA (Karikó, et al., Immunity 2005, 23, 165-175; Pardi, et al., Methods Mol. Biol. 2013, 969, 29-42), of molar mass 664,341 encoding firefly luciferase (mRNA-Luc). A constant concentration of mRNA-Luc of 125 ng/well was used. The transIT (TransIT-mRNA transfection Kit from Mirus Bio) and MC3-based LNPs (MC3: DLin-MC3-DMA, which is the FDA approved LNP for mRNA delivery) were used as positive controls for cell transfection at a concentration of mRNA-Luc of 125 ng/well, identical to that of the tested DNPs. Subsequently cells were cultured for 24 h, the medium was aspirated under reduced pressure by a glass pipette and cells were lysed with 30 μL/well of cell culture lysis reagent (Promega). The luminescence intensity corresponding to the luciferase protein expressed was characterized and analyzed.
In vitro mRNA Delivery: Human embryonic kidney (HEK) 293T cells (American Type Culture Collection) were cultured in Dulbecco's modified Eagle's medium (DMEM) supplemented with 10% inactivated fetal bovine serum (FBS) (Gemini Bio-Products), 2 mM L-glutamine and 100 U/mL penicillin/streptomycin (Life Technologies) (complete medium). For in vitro screening experiments, HEK293T cells were seeded into 96-well plates (20,000 cells/well/200 μL) and cultured for 24 h in at 37° C. and 5% CO2 in complete media. Cell were transfected with IAJDs with encapsulated naked nucleoside-modified mRNA encoding firefly luciferase (mRNA-Luc) with fixed concentration of mRNA-Luc, 125 ng per well. The transIT (TransIT®-mRNA Transfection Kit, Mirus Bio) was used as a positive control for cell transfection, accordingly per manufacturer protocol and added to cells at the concentration of mRNA-Luc, 125 ng per well, the same as for tested particles. Cells were further cultured for 24 h, then medium was aspirated, and cells were lysed with 30 μL/well of cell culture lysis reagent (Promega). For the characterization of luminescence intensity, 2.5 μL of the lysed cells was mixed with 10 μL of luciferase assay substrate and luminescence was analyzed using a MiniLumat LB 9506 luminometer (Berthold/EG&G; Wallac).
Luminescence characterization for in vitro transfection experiments was performed by determining the luminescence intensity for in vitro Luc-mRNA transfection experiments using a MiniLumat LB 9506 luminometer (Berthold/EG&G; Wallac).
For in vitro Luc-mRNA transfection screening experiments, human embryonic kidney 293 cells (HEK 293) were seeded into 96-well plates (20,000 cells/well/200 μL) and cultured for 18-20 hours at 37° C., 5% CO2 in complete Dulbecco's modified Eagle's medium (DMEM) supplemented with 2 mM L-glutamine (Life Technologies), 100 U/mL penicillin/streptomycin (Invitrogen) and 10% fetal bovine serum (FBS, Gemini Bio-Products). Cells were transfected with DNPs with encapsulated naked nucleoside-modified mRNA encoding firefly luciferase (Luc-mRNA) at constant concentration of Luc-mRNA, 125 ng per well. Luc-mRNA complexed with TransIT (TransIT®-mRNA Transfection Kit, Mirus Bio) or encapsulated in FDA approved MC3-based LNPs were used as positive controls for cell transfection, at the concentration of Luc-mRNA of 125 ng per well, the same as for tested DNPs. After transfection cells were further cultured at 37° C., 5% CO2 for 18-20 hours, then medium was aspirated and cells were lysed with luciferase cell culture lysis reagent (30 μL/well) (Promega, Madison, WI). […]

[5] = Acetate buffer 10 mM pH 4.0, CLuc-mRNA 0.05 mg/mL
[6] = Acetate buffer 10 mM pH 5.2, CLuc-mRNA 0.10 mg/mL
[7] = Citrate buffer 10 mM pH 3.0, CLuc-mRNA 0.05 mg/mL

Compound: CCCCCCCCCCCCOc1cc(OCCCCCCCCCCCC)cc(C(=O)OC[C@H](COC(=O)C(C)(COC(=O)c2cc(OCCOCCOCCOC)c(OCCOCCOCCOC)c(OCCOCCOCCOC)c2)COC(=O)c2cc(OCCOCCOCCOC)c(OCCOCCOCCOC)c(OCCOCCOCCOC)c2)OC(=O)c2cc(OCCCCCCCCCCCC)cc(OCCCCCCCCCCCC)c2)c1 [Compound 1R, (3,5)-12G1-GC-(R)-BMPA-(3,4,5)-3EO-G1]
- PDI ([1]; JD 0.025 mg·mL−1 in water): 0.455
- Dh (nm) ([1]; JD 0.025 mg·mL−1 in water): 82 nm
- PDI ([1]; JD 0.05 mg·mL−1 in water): 0.336
- Dh (nm) ([1]; JD 0.05 mg·mL−1 in water): 87 nm
- PDI ([1]; JD 0.1 mg·mL−1 in water): 0.197
- Dh (nm) ([1]; JD 0.1 mg·mL−1 in water): 110 nm
- PDI ([1]; JD 0.15 mg·mL−1 in water): 0.195
- Dh (nm) ([1]; JD 0.15 mg·mL−1 in water): 124 nm
- PDI ([1]; JD 0.2 mg·mL−1 in water): 0.175
- Dh (nm) ([1]; JD 0.2 mg·mL−1 in water): 135 nm
- PDI ([1]; JD 0.25 mg·mL−1 in water): 0.202
- Dh (nm) ([1]; JD 0.25 mg·mL−1 in water): 140 nm
- PDI ([1]; JD 0.3 mg·mL−1 in water): 0.190
- Dh (nm) ([1]; JD 0.3 mg·mL−1 in water): 148 nm
- PDI ([1]; JD 0.4 mg·mL−1 in water): 0.228
- Dh (nm) ([1]; JD 0.4 mg·mL−1 in water): 178 nm
- PDI ([1]; JD 0.5 mg·mL−1 in water): 0.326
- Dh (nm) ([1]; JD 0.5 mg·mL−1 in water): 233 nm
- Number of vesicle layers: 1 (count of vesicles) ([2]; vesicles with 1 layer): 61
- Number of vesicle layers: 2 (count of vesicles) ([2]; vesicles with 2 layers): 15
- Number of vesicle layers: 3 (count of vesicles) ([2]; vesicles with 3 layers): 4
- Number of vesicle layers: 4 (count of vesicles) ([2]; vesicles with 4 layers): 1
- Number of vesicle layers: 5 (count of vesicles) ([2]; vesicles with 5 layers): 1
- Number of vesicle layers: 6 (count of vesicles) ([2]; vesicles with 6 layers): 0

Compound: (3,5)-12G2-BMPA-GC-(achiral)-(3,4,5)-3EO-G1 [Compound 4]
- PDI [3, 5]: 0.330
- Size (d, nm) [3, 5]: 58 nm
- PDI [3, 6]: 0.284
- Size (d, nm) [3, 6]: 178 nm
- PDI [3, 7]: 0.460
- Size (d, nm) [3, 7]: 61 nm
- Luminescence [4, 5]: 3,283
- Luminescence [4, 6]: 1,613
- Luminescence [4, 7]: 2,063
